In patent publication US20240317706A1, “COMPOUNDS THAT MEDIATE PROTEIN DEGRADATION AND METHODS OF USE THEREOF” (Monte Rosa Therapeutics, Inc., priority 2021, published 2024) one finds Dmax and Ki data, which are given here for two compounds.

Each structure is given as a SMILES string.

In general, Dmax refers to the largest share of the target that was removed. Low readings indicate a partial loss of target, high ones a fuller loss of target. The Ki is a dissociation constant, usually derived from enzyme kinetics or from competition with a known ligand. Low readings indicate a stronger hold on the target, high ones a looser hold on the target.

One assay addresses T1, CDK2 (Homo sapiens, UniProt P24941).
T1 construct: HEK293 clonal lines with CRISPR KI HiBiT tag on CDK2 proteins; host or cells: HEK293 clonal line, CRISPR knock-in HiBiT-CDK2, stably expressing LgBiT
The assay can be described thus: HiBiT assay (CDK2 degradation). The note with it: HEK293 clonal line with CRISPR KI HiBiT tag on CDK2, 24 hours, HiBiT Lysis Reagent. Format: cell-based. An outline of the steps:
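HEK293 with endogenous HiBiT-tagged CDK2 and stable LgBiT, 5000 cells/well, treated 24 h at 37 °C (compound source plate 30 μM). Luminescence after HiBiT lysis reagent 15 min, normalized to plate controls; 3-parameter logistic fit (Hill slope 1) gives EC50 and Dmax.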

In another assay the target is CRBN-DDB1 (Homo sapiens, UniProt Q96SW2). The assay can be described thus: Compound binding to CRBN by HTRF assay. The note with it: CRBN-DDB1 2.5 nM, Cy5-Thalidomide 100 nM, 30 min; Ki from geometric mean IC50 by Cheng-Prustoff transformation. An outline of the steps: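 HTRF displacement of Cy5-thalidomide probe (100 nM) from His-CRBN-DDB1 (2.5 nM) with anti-His terbium cryptate, in HEPES/NaCl/TCEP/EDTA/Tween20 buffer. 10-point 1:3 compound series, 30 min at ambient temperature; signal normalised to DMSO and lenalidomide controls, IC50 fitted and Ki derived by Cheng-Prusoff.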
Sequence of CRBN-DDB1 (Q96SW2 whole entry): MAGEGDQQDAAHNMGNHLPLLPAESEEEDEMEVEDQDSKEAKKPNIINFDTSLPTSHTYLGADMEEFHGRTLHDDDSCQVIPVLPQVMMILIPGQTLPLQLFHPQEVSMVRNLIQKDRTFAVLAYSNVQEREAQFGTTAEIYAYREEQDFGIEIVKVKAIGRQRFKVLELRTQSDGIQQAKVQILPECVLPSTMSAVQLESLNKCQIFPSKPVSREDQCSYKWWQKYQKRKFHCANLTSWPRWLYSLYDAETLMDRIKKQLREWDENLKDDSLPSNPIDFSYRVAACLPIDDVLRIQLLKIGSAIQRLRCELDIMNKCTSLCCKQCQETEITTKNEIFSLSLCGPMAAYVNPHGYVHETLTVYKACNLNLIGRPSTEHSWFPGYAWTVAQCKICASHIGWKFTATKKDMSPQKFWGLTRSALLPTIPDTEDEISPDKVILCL
Sequence of CRBN-DDB1 (Q16531 whole entry partner): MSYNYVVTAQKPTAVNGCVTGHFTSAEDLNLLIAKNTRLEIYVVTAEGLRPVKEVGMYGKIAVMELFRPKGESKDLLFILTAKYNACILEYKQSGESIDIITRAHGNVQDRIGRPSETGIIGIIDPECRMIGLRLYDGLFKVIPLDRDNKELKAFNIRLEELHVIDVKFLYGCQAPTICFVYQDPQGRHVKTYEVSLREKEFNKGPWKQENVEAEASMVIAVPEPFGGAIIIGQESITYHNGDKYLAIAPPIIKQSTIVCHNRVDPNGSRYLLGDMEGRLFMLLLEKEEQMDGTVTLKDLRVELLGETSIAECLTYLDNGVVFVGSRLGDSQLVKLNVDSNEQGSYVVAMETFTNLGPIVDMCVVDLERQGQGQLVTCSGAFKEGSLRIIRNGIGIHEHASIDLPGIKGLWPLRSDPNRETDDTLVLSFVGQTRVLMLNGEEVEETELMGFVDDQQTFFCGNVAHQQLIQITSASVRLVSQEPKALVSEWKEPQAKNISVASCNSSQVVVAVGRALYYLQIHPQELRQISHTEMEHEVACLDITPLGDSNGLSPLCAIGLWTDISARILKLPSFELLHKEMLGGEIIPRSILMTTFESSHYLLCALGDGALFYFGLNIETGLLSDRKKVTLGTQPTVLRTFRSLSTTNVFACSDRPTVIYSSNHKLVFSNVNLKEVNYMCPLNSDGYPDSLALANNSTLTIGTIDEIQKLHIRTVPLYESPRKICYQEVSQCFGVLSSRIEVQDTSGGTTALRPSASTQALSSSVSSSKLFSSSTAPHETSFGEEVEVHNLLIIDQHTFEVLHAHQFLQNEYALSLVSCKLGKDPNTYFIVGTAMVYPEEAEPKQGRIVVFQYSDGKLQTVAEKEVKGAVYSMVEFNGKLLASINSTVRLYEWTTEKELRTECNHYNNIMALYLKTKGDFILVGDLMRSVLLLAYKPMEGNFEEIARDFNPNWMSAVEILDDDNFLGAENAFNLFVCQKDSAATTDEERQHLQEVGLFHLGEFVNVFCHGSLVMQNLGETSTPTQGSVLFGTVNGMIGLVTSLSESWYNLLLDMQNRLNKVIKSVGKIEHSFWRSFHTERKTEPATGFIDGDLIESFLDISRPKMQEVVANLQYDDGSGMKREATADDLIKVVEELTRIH
Background: TR-FRET usually uses a lanthanide donor and a delayed reading to cut background.

At CDK2, `CC1(C)CCC1OC(=O)NCc1ccc2c(c1)C(=O)N(C1CCC(=O)NC1=O)C2` (stereo not shown) [Compound 24, 2,2-dimethylcyclobutyl N-{[2-(2,6-dioxopiperidin-3-yl)-3-oxo-2,3-dihydro-1H-isoindol-5-yl]methyl}carbamate] gave a Dmax of 10 to 50%. On CRBN-DDB1, this compound showed a Ki of 100 to 1000 nM.
Take `C[C@H]1COC[C@@H]1OC(=O)NCc1ccc2c(c1)C(=O)N(C1CCC(=O)NC1=O)C2` (stereo partly drawn) [Compound 30, (3R,4S)-4-methyloxolan-3-yl N-{[2-(2,6-dioxopiperidin-3-yl)-3-oxo-2,3-dihydro-1H-isoindol-5-yl]methyl}carbamate]: the Dmax on CDK2 was no more than 10%. The Ki on CRBN-DDB1 fell in the range of 100 to 1000 nM.
